Source: PubChem BioAssay (NCI)
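Assay format: 96-well plates, 48-hour exposure. At the GI50, growth is halved. Definition used: TGI = concentration required for complete inhibition of growth.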

What was measured:
Experiment in all cases: NCI tumour cell line growth inhibition, 48 h
[1] = tested on: ACHN renal
[2] = tested on: HCT-15 colon
[3] = tested on: HOP-62 NSCLC
[4] = tested on: IGROV1 ovarian
[5] = tested on: KM12 colon
[6] = tested on: RPMI-8226 leukemia
[7] = tested on: SF-539 CNS
[8] = tested on: UO-31 renal
[9] = tested on: HOP-18 NSCLC
[10] = tested on: M19-MEL melanoma

| Compound | TGI [1] | TGI [2] | TGI [3] | TGI [4] | TGI [5] | TGI [6] | TGI [7] | TGI [8] | GI50 [1] | GI50 [2] | GI50 [3] | GI50 [4] | GI50 [5] | GI50 [6] | GI50 [7] | GI50 [8] | TGI [9] | TGI [10] | GI50 [9] | GI50 [10] |
| --- | --- | --- | --- | --- | --- | --- | --- | --- | --- | --- | --- | --- | --- | --- | --- | --- | --- | --- | --- | --- |
| O=C(Nc1ccccc1)OC1OC(COC(=O)c2ccccc2)C(OC(=O)c2ccccc2)C1OS(=O)(=O)c1ccc([N+](=O)[O-])cc1 (configuration not stated) | > 100 µM | > 100 µM | > 100 µM | > 100 µM | > 100 µM | > 100 µM | > 100 µM | > 100 µM |  |  |  |  |  |  |  |  |  |  |  |  |
| CCC(C)C1=C(O)[N+]2([O-])Oc3ccc(C4=C(O)C(=O)C(c5ccc(O)cc5)=C(O)C4=O)cc3OC2(C(C)CC)C(=O)N1O (configuration not stated) | > 100 µM | > 100 µM | > 100 µM | > 100 µM | > 100 µM | > 100 µM | > 100 µM | > 100 µM | 11.6 µM | 5.82 µM | 9.94 µM | 17 µM | 40.3 µM | 6.74 µM | 15.8 µM | 22200 nM |  |  |  |  |
| CC1=C(C(=O)Nc2ccc(F)c(Cl)c2)C(c2cccc(Oc3ccccc3)c2)NC(=S)N1 (configuration not stated) | 36.1 µM | 33.2 µM | 30.1 µM | 37 µM | > 50 µM | > 50 µM | 44 µM | 44.3 µM | 12.3 µM | 11.5 µM | 14.7 µM | 10.6 µM | 18.8 µM | 16.8 µM | 18.7 µM | 13300 nM |  |  |  |  |
| CNC(=O)c1c(F)cccc1Nc1nc(Nc2cc3c(cc2OC)CCN3C(=O)CN(C)C)nc2[nH]ccc12 | 23.1 µM | 19 µM | 20.8 µM | 43.1 µM | 4.99 µM | 17.4 µM | 10.3 µM | 12.2 µM | 8.8 µM | 3.08 µM | 5.5 µM | 17.5 µM | 2.23 µM | 4.94 µM | 4.94 µM | 3850 nM |  |  |  |  |
| O=C(/C=C/c1ccccn1)c1ccc(OCc2nnc(-c3ccc(Cl)cc3)o2)cc1 | 3.11 µM | 3.36 µM | 5.65 µM | 3.62 µM | 3.3 µM | 1.06 µM | 3.09 µM | 3.26 µM | 1.66 µM | 1.62 µM | 2.26 µM | 1.96 µM | 1.48 µM | 0.296 µM | 1.66 µM | 1810 nM |  |  |  |  |
| CC1=CP(=O)(c2ccccc2)C=C(C)C1=C(Cl)Cl (configuration not stated) |  |  | 12.5 µM | 34.1 µM | 14.9 µM | 11.5 µM | 88.6 µM |  |  |  |  |  |  |  |  |  | 45.2 µM | 30.3 µM |  |  |
| COS(C)(=O)=O | > 2 µM | > 2 µM | > 2 µM | > 2 µM | > 2 µM | > 2 µM | > 2 µM | > 2 µM |  |  |  |  |  |  |  |  |  |  |  |  |
| CCOc1ccc(C(C[N+](=O)[O-])Sc2ccccc2N)cc1 (configuration not stated) | 23.1 µM | 4.75 µM | 32.3 µM | 13.2 µM | 10.2 µM | 5.32 µM | 3.94 µM | 18.2 µM | 11.1 µM | 2.01 µM | 18.3 µM | 3.33 µM | 3.27 µM | 2.23 µM | 1.89 µM | 2050 nM |  |  |  |  |
| C[N+](C)(C)c1cc[c]([Sn]([c]2ccc([N+](C)(C)C)cc2)([c]2ccc([N+](C)(C)C)cc2)[c]2ccc([N+](C)(C)C)cc2)cc1 | > 100 µM | > 100 µM | > 100 µM | > 100 µM | > 100 µM | > 100 µM | > 100 µM | > 100 µM | > 100 µM | > 100 µM | > 100 µM | > 100 µM | > 100 µM | > 100 µM | > 100 µM | > 100000 nM | > 100 µM | > 100 µM | > 100 µM | > 100 µM |
| COc1cc2c(c(OC)c1OC)-c1ccc(SC)c(=O)cc1[C@@H](NC(=O)C(F)(F)F)CC2 | > 72.3 µM | > 15.8 µM | > 100 µM | > 100 µM | < 0.0631 µM | > 100 µM | < 0.01 µM | > 95.7 µM |  |  |  |  |  |  |  |  | > 100 µM | > 100 µM |  |  |
| O=C1C=C2CCCC2C(C(=O)O)(C(=O)O)C1 (configuration not stated) |  | > 100 µM | > 100 µM | > 100 µM | > 100 µM | > 100 µM | > 100 µM | > 100 µM |  |  |  |  |  |  |  |  |  | > 100 µM |  |  |
| CCCCOc1ccc(/C=N/Nc2cc(C)nc3ccc(Br)cc23)cc1 | 3.11 µM | 3.05 µM | 2.94 µM | 3.59 µM | 3.85 µM | 4.58 µM | 3.29 µM | 2.82 µM | 1.73 µM | 1.61 µM | 1.47 µM | 1.91 µM | 1.95 µM | 2.03 µM | 1.84 µM | 1480 nM |  |  |  |  |
| COc1ccc(/C=C/C(=O)c2c(-c3ccccc3)nn(C)c(=O)c2N2CCOCC2)cc1 | > 100 µM | > 100 µM |  | > 100 µM |  | > 100 µM | > 100 µM | > 100 µM |  |  |  |  |  |  |  |  | > 100 µM | > 100 µM |  |  |
| O=C1Cc2cc(CCn3cncn3)c(Cl)cc2N1 | > 100 µM | > 100 µM | > 100 µM | > 100 µM | > 100 µM | > 100 µM | > 100 µM | > 100 µM | > 100 µM | 9.59 µM | 29.9 µM | > 100 µM | 5.42 µM | > 100 µM | > 100 µM | > 100000 nM |  |  |  |  |
| Clc1cccc(CNc2c3ccccc3nc3ccccc23)c1 | 3.66 µM | 4.6 µM | 12.4 µM | 5.46 µM | 7.7 µM | 4.18 µM | 3.32 µM | 3.13 µM | 1.59 µM | 1.88 µM | 2.77 µM | 1.91 µM | 2.49 µM | 1.74 µM | 1.78 µM | 1140 nM |  |  |  |  |
